ChEMBL document CHEMBL3297725, “Acridone alkaloids from Glycosmis chlorosperma as DYRK1A inhibitors” (J Nat Prod, 2014)

Experiments:
[1] = target: Cyclin-dependent kinase 1 (Homo sapiens, UniProt P06493); experiment: Inhibition of CDK1 (unknown origin) assessed as inhibition of phosphate incorporation into substrate in presence of radiolabeled ATP
[2] = target: Cyclin-dependent kinase 5 (Homo sapiens, UniProt Q00535); experiment: Inhibition of CDK5 (unknown origin) assessed as inhibition of phosphate incorporation into substrate in presence of radiolabeled ATP
Cyclin-dependent kinase 5, sequence (Q00535 whole entry): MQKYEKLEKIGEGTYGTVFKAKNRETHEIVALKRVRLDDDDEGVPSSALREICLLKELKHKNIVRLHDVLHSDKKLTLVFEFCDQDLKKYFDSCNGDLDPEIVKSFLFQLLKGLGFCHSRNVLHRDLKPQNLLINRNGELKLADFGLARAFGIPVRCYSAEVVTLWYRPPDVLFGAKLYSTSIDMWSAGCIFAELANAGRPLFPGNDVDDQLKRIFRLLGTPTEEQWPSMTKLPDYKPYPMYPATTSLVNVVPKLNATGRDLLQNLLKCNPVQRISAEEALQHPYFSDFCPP

[3] = target: Dual specificity tyrosine-phosphorylation-regulated kinase 1A (Homo sapiens, UniProt Q13627); experiment: Inhibition of DYRK1A (unknown origin) assessed as inhibition of phosphate incorporation into substrate in presence of radiolabeled ATP
[4] = target: Glycogen synthase kinase-3 (Homo sapiens, UniProt P49840+P49841); experiment: Inhibition of GSK3 (unknown origin) assessed as inhibition of phosphate incorporation into substrate in presence of radiolabeled ATP; assay type: protein assay
[5] = tested on: Casein kinase 1 delta/epsilon (Sus scrofa); experiment: Inhibition of CK1 (porcine brain) assessed as inhibition of phosphate incorporation into substrate in presence of radiolabeled ATP
[6] = target: Dual specificity protein kinase CLK1 (Mus musculus) (UniProt P22518); experiment: Inhibition of CLK1 (mouse recombinant) assessed as inhibition of phosphate incorporation into substrate in presence of radiolabeled ATP
Dual specificity protein kinase CLK1 (Mus musculus), sequence (P22518 whole entry, looked up, the tested form may be a part): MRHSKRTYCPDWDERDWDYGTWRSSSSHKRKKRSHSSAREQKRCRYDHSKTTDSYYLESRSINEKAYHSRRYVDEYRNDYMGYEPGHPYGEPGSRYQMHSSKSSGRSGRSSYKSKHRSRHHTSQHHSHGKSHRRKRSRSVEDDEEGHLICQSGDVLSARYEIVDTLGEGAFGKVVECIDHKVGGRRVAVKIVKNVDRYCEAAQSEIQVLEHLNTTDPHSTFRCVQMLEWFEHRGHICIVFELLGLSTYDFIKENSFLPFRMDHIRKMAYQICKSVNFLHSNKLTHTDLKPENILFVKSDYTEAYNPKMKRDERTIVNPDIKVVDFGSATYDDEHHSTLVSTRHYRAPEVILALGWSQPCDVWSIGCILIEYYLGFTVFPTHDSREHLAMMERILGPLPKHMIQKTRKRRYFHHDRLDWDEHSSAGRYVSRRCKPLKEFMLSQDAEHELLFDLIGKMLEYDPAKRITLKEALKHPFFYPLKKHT

[7] = target: Dual specificity protein kinase CLK1 (Mus musculus, UniProt P22518); experiment: Inhibition of mouse recombinant GST-fused CLK1 expressed in Escherichia coli cells assessed as inhibition of phosphate incorporation using GRSRSRSRSRSR and [gamma-33P]ATP as substrate after 30 mins by scintillation counting analysis
Dual specificity protein kinase CLK1, sequence (P22518 whole entry, the tested form may be a part): as the sequence (P22518 whole entry, looked up, the tested form may be a part) above

[8] = target: Dual specificity tyrosine-phosphorylation-regulated kinase 1A (Rattus norvegicus, UniProt Q63470); experiment: Inhibition of rat DYRK1A assessed as inhibition of phosphate incorporation using GRSRSRSRSRSR and [gamma-33P]ATP as substrate after 30 mins by scintillation counting analysis
[9] = Inhibition of CDK1/cyclin B in starfish oocytes assessed as inhibition of phosphate incorporation using histone 1 and [gamma-33P]ATP as substrate after 30 mins by scintillation counting analysis; design: species or system Patiria pectinifera
[10] = target: CDK2/Cyclin A2 (Homo sapiens, UniProt P24941); experiment: Inhibition of CDK2/cyclin A (unknown origin); assay type: protein-complex assay
[11] = target: Cyclin-dependent kinase 5/CDK5 activator 1 (Homo sapiens, UniProt Q00535); experiment: Inhibition of CDK5/p25 (unknown origin) assessed as inhibition of phosphate incorporation using histone 1 and [gamma-33P]ATP as substrate after 30 mins by scintillation counting analysis; assay type: protein-complex assay
Cyclin-dependent kinase 5/CDK5 activator 1, sequence (Q00535 whole entry): as the sequence (Q00535 whole entry) above
Cyclin-dependent kinase 5/CDK5 activator 1, sequence (Q15078 whole entry, further chain): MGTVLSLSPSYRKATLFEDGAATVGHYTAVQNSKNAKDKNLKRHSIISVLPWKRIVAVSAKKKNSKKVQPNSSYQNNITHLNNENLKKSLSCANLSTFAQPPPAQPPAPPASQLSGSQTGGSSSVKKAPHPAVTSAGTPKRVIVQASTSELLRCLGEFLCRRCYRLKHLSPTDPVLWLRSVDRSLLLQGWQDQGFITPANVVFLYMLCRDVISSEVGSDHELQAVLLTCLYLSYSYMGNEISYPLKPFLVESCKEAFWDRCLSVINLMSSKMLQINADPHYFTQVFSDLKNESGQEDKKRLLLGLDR

[12] = target: CDK9/cyclin T1 (Homo sapiens, UniProt P50750); experiment: Inhibition of CDK9/cyclin T (unknown origin); assay type: protein-complex assay
CDK9/cyclin T1, sequence (O60563 whole entry): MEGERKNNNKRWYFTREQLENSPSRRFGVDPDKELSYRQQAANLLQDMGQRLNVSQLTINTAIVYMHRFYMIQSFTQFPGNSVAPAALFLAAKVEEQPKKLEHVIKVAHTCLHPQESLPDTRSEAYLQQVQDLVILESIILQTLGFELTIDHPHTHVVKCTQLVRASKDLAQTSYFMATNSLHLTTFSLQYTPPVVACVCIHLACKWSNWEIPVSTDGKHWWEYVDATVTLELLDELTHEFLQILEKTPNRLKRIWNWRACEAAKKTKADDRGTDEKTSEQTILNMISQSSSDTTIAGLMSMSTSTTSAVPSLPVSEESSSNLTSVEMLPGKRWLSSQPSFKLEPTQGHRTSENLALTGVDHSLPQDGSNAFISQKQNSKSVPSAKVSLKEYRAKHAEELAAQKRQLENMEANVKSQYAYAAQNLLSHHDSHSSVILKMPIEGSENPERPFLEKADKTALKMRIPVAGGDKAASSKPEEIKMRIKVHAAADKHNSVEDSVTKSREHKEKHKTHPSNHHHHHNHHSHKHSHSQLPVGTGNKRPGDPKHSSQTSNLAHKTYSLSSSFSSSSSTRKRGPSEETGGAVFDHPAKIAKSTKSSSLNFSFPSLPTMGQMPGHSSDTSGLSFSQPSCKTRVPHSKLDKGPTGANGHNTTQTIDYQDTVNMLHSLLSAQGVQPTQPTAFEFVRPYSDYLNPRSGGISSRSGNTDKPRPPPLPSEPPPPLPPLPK
CDK9/cyclin T1, sequence (P50750 whole entry): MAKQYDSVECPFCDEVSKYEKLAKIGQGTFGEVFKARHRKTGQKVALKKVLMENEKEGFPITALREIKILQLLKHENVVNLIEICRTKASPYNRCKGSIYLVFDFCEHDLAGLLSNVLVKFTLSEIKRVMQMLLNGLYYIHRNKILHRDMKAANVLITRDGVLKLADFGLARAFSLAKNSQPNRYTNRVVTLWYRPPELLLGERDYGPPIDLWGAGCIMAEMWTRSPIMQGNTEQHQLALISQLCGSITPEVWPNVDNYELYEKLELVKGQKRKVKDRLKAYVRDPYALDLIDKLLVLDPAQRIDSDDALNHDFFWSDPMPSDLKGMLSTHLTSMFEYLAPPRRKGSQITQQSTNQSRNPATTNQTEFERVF

[13] = Inhibition of CK1 delta/epsilon in porcine brain assessed as inhibition of phosphate incorporation using RRKHAAIGpSAYSITA and [gamma-33P]ATP as substrate after 30 mins by scintillation counting analysis; design: species or system Sus scrofa
[14] = target: Dual specificity protein kinase CLK2 (Homo sapiens, UniProt P49760); experiment: Inhibition of CLK2 (unknown origin)
Dual specificity protein kinase CLK2, sequence (P49760 whole entry): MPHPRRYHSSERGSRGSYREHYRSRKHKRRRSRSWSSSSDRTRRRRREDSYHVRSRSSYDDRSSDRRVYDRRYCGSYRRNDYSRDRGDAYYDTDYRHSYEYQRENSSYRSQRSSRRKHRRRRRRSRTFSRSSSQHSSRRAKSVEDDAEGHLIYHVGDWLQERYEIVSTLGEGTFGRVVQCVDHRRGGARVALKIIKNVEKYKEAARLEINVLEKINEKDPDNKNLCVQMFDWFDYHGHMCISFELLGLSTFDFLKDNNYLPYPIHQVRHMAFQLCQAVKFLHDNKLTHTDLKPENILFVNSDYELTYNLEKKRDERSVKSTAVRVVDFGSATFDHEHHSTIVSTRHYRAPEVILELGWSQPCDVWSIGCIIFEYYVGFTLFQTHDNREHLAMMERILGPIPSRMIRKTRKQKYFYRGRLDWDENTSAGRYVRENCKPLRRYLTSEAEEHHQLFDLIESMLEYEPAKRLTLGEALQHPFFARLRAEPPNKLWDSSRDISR

[15] = target: Dual specificity protein kinase CLK3 (Homo sapiens, UniProt P49761); experiment: Inhibition of CLK3 (unknown origin)
Dual specificity protein kinase CLK3, sequence (P49761 whole entry): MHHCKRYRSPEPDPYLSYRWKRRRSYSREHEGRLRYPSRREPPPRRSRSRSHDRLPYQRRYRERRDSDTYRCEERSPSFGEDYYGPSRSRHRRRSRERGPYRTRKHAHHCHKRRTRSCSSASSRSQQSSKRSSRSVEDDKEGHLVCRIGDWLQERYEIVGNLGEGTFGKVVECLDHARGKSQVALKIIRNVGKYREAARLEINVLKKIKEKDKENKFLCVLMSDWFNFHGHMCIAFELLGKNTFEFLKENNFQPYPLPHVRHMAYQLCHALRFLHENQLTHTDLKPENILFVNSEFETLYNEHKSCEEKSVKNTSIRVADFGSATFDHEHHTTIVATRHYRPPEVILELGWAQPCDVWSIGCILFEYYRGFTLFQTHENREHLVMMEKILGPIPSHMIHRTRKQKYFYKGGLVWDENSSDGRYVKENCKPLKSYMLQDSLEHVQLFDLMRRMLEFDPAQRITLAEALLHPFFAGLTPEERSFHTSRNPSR

[16] = target: Dual specificity protein kinase CLK4 (Homo sapiens, UniProt Q9HAZ1); experiment: Inhibition of CLK4 (unknown origin)
Dual specificity protein kinase CLK4, sequence (Q9HAZ1 whole entry): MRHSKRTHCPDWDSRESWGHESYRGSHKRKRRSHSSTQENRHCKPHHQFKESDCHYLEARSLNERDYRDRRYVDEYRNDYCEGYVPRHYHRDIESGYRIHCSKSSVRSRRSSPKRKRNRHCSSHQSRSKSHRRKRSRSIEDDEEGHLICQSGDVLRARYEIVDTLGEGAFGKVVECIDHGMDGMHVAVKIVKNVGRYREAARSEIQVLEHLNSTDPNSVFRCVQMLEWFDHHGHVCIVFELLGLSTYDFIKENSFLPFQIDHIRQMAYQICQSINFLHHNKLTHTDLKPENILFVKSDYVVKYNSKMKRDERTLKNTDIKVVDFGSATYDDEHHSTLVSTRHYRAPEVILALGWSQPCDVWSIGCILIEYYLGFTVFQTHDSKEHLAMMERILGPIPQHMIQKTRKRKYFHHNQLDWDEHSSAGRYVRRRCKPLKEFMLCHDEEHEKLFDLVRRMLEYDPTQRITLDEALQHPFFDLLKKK

[17] = target: Dual specificity tyrosine-phosphorylation-regulated kinase 1B (Homo sapiens, UniProt Q9Y463); experiment: Inhibition of DYRK1B (unknown origin)
Dual specificity tyrosine-phosphorylation-regulated kinase 1B, sequence (Q9Y463 whole entry): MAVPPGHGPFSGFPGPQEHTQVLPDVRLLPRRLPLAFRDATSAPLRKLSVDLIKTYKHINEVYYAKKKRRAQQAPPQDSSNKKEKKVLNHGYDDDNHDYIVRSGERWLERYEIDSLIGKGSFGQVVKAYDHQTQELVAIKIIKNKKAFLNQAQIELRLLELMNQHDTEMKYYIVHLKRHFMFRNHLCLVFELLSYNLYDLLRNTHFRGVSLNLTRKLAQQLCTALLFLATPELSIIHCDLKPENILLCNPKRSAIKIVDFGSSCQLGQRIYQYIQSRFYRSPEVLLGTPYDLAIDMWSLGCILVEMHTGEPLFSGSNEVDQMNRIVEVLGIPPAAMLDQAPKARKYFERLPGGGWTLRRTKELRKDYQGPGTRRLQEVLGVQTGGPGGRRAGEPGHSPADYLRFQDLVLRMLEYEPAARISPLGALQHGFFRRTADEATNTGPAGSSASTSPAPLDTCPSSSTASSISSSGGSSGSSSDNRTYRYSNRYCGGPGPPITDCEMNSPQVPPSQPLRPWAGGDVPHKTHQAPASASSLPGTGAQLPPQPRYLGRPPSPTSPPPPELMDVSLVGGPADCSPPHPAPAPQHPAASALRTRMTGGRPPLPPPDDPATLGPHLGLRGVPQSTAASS

[18] = target: T1, Dual specificity tyrosine-phosphorylation-regulated kinase 2 (Homo sapiens, UniProt Q92630); experiment: Inhibition of DYRK2 (unknown origin)
T1 sequence (Q92630 whole entry): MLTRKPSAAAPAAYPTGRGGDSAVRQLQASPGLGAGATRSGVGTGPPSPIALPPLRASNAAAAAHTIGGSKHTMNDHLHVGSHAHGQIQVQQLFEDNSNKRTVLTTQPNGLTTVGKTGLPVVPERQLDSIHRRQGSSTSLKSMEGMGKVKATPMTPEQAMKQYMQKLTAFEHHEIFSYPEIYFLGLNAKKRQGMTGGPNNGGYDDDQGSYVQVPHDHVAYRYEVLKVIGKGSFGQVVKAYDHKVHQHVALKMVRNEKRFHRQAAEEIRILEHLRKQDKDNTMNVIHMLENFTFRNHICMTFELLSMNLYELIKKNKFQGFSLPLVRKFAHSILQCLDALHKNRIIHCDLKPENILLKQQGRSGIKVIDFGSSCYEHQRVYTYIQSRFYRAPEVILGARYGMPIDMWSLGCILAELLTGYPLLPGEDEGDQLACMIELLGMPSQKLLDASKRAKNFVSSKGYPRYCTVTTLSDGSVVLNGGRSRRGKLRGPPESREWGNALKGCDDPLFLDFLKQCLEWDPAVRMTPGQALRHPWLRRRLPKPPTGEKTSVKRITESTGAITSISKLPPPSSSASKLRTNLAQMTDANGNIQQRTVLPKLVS

[19] = target: T2, Dual specificity tyrosine-phosphorylation-regulated kinase 3 (Homo sapiens, UniProt O43781); experiment: Inhibition of DYRK3 (unknown origin)
T2 sequence (O43781 whole entry): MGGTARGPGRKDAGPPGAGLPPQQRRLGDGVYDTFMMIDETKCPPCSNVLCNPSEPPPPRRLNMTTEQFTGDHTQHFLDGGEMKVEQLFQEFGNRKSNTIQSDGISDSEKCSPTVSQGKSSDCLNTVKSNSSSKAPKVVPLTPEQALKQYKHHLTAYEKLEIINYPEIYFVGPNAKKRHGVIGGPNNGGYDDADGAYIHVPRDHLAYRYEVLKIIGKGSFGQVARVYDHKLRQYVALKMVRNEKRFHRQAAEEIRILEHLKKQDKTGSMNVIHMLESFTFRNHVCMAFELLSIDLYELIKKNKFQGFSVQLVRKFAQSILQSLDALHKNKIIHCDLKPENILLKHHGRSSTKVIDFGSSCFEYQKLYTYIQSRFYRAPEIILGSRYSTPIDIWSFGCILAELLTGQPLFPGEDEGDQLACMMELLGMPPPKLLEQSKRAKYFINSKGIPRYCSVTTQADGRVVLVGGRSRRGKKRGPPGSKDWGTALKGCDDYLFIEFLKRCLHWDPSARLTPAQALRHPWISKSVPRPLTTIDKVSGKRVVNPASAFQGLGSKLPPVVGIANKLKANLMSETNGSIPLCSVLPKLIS

[20] = target: Glycogen synthase kinase-3 (Sus scrofa, UniProt B2LUN4+I6LNT8); experiment: Inhibition of GSK3 alpha/beta in porcine brain assessed as inhibition of phosphate incorporation using YRRAAVPPSPSLSRHSSPHQSpEDEEE and [gamma-33P]ATP as substrate after 30 mins by scintillation counting analysis

Cyclin-dependent kinase 1, sequence (P06493 whole entry): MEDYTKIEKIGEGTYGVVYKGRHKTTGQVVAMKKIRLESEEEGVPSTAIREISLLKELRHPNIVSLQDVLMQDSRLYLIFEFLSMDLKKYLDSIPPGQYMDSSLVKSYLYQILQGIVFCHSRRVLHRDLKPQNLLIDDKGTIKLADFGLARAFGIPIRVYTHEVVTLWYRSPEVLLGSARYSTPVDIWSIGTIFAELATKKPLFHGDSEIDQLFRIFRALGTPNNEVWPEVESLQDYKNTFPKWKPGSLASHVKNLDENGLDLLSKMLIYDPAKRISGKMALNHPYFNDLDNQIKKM

Row | Compound | IC50 [3] | IC50 [1] | IC50 [2] | IC50 [4] | IC50 [5] | IC50 [6] | IC50 [7] | IC50 [8] | IC50 [9] | IC50 [10] | IC50 [11] | IC50 [12] | IC50 [13] | IC50 [14] | IC50 [15] | IC50 [16] | IC50 [17] | IC50 [18] | IC50 [19] | IC50 [20]
1 | Cn1c2c(O)cccc2c(=O)c2c3c(c4c(c21)C=CC(C)(C)O4)C=C(O)C(C)(C)O3 | > 10 µM | > 10 µM | > 10 µM | > 10 µM | > 10 µM | > 10 µM |  |  |  |  |  |  |  |  |  |  |  |  |  | 
2 | COc1c(O)ccc2c(=O)c3c(O)cc4c(c3[nH]c12)C=CC(C)(C)O4 | 0.075 µM | 5.3 µM | 9 µM | 2 µM | > 10 µM | 0.17 µM | 0.21 µM | 0.09 µM | 1.1 µM | 8.2 µM | > 10 µM | 0.82 µM | 8.7 µM | 0.68 µM | 2.3 µM | 0.22 µM | 0.35 µM | 1.7 µM | 1.2 µM | 0.71 µM
3 | CC1(C)C=Cc2c(cc(O)c3c(=O)c4cccc(O)c4[nH]c23)O1 [ATOLAPHYLLIDINE] | 2.2 µM | > 10 µM | > 10 µM | > 10 µM | > 10 µM | ≥ 10 µM |  |  |  |  |  |  |  |  |  |  |  |  |  | 

Further lines, with some results ahead:

Row | IC50 [3] | Compound | IC50 [1] | IC50 [2] | IC50 [4] | IC50 [5] | IC50 [6] | IC50 [7] | IC50 [8] | IC50 [9] | IC50 [10] | IC50 [11] | IC50 [12] | IC50 [13] | IC50 [14] | IC50 [15] | IC50 [16] | IC50 [17] | IC50 [18] | IC50 [19] | IC50 [20]
4 | 5.7 µM | Cn1c2c(O)cccc2c(=O)c2c3occc3c3c(c21)C=CC(C)(C)O3 | > 10 µM | > 10 µM | > 10 µM | > 10 µM | 7 µM |  |  |  |  |  |  |  |  |  |  |  |  |  | 
5 | 0.052 µM | O=C1Nc2cc(Br)ccc2/C1=C1/Nc2ccccc2/C1=N\O [6BIO] |  |  |  |  |  |  |  |  |  |  |  |  |  |  |  |  |  |  | 
